Measured values: patent US5783558A, “Parathormone fragments, their preparation and medicaments containing these” (Boehringer Mannheim GmbH, priority 1992, dated 1998)

Columns and labels:
UMR 106 cells = experiment: DNA synthesis capacity of PTH(3-X) fragments on UMR 106 cells ([3H]-thymidine incorporation); type: cell-based
Source text: DNA synthesis capacity on PTH-(3-X) fragments
An increased DNA synthesis capacity on UMR 106 cells was also observed with fragments, the N-terminus of which was shortened by two amino acids. An action maximum was again present when the chain length lay between 34 and 36 amino acids (cf. Tab. 6). This finding is surprising since it is known that a deletion of the amino acids +1 or +1 and +2 leads to the loss of the cAMP induction, combined with the loss of the calcium-mobilising properties of the PTH. An anabolic (mitogenic) activity of N-terminal shortened PTH fragments has hitherto not been described.

ROS 17/2.8 cells = experiment: DNA synthesis capacity on ROS 17/2.8 cells ([3H]-thymidine incorporation); type: cell-based; conditions: for DNA synthesis E/C / [^3 H]-thymidine incorporation (cpm): hPTH(1-X) 100 nM, ROS/2.8 cells
Procedure: DNA synthesis capacity on ROS 17/2.8 cells
The DNA synthesis capacity was measured on ROS 17/2.8 cells. […] Tab. 3: DNA synthesis hPTH(1-X), 100 nM, ROS/2.8 cells

sterna organ cultures [1] = experiment: Mitogeneity on sterna organ cultures; type: cell-based; conditions: n=4
Procedure: Mitogeneity on sterna organ cultures
The mitogeneity of the new fragments was tested in organ cultures from sterna and it was ascertained that this activity was more strongly marked than in the case of the known fragments hPTH(1-34) and hPTH(1-38)(cf. Tab. 2).

[2] = test system: membrane fractions from pigs' kidneys; experiment: cAMP stimulation on porcine kidney membrane; type: biochemical, pig; conditions: for Induction of cAMP formation in words: membrane fractions from pigs' kidneys, compared with PTH(1-34); for pMol cAMP/mg protein ± SEM: porcine kidney membrane, n=3
Procedure: (§1) In organ cultures from sterna, as well as on membrane fractions from pigs' kidneys was measured the induction of the cAMP formation by various PTH peptides. […] This is of importance since the catabolic, i.e. calcium-mobilising properties of PTH are, as is known, involved with an increase of the cAMP (Schluter et al. (1989), J. Biol. Chem. 264, 19:11087-11092; Lowik et al., (1988), Calcif Tissue Int. 43:7-18). These findings are plausible and, therefore, support the above-mentioned findings which show an increase of the anabolic properties of the peptide in the case of a chain length between 35 and 36 amino acids.

rats = experiment: Ca retention (Ca balance) in growing rats; type: in vivo, rat; set-up: Ca retention (mg per day) average value: dose or concentration left out as unconfirmed; conditions: for Ca retention (mg per day) average value / Ca retention % increase: male CD rats, daily subcutaneous, 10 days; for Ca retention (mg per day) average value: equimolar doses, balance measured during last 3 days; for Ca retention in words: rats, compared with hPTH(1-n), n=34, 37, 38; for Ca retention % increase: versus control
Procedure: Determination of the action of various PTH fragments on the Ca retention in the case of rats.
The measurement of the Ca balance in growing rats is a suitable model to test in vivo the effectiveness of a systemically administered substance on the bone metabolism. In the case of the Ca balance, the Ca flows in and out of the body are measured and the Ca retention (balance) calculated therefrom. It is thereby taken into account that the bones store about 99% of the body calcium, whereas the plasma calcium level remains constant. The amount of calcium retained in the body from the nutrition can, therefore, be regarded as proportional to the growth in the bone mass.
As experimental animals for the investigations, there served male CD rats which, at the beginning of the experiment, were 10 weeks old and weighed 250-300 g. The experimental animals were kept individually in commercially-available metabolic cages. An automatic separation of faeces and urine took place in the metabolic cages. Both fractions were collected quantitatively in collection containers and could be analyzed separately from one another.
As feed there served a standard diet for rats of meal-like consistency which was pasted with aqua dist. in the ratio of 1:1. The daily provided amount of feed was so adapted to the feed requirement of the animals in the sense of a so-called "group feedings" that they were completely eaten by all animals. The daily food ration amounted to 20 g (wet feed). Aqua dist. was offerred to the animals ad libitum.
All test substances were injected daily subcutaneously in equimolar doses (corresponding to […] hPTH(1-34)×kg^-1 ×day^-1), over 10 days. Of this, the first 7 days served for the adaptation of the animals, whereas the measurement of the Ca balance took place during the last 3 days.
The Ca intake was calculated via the amount of feed taken up and the experimentally determined Ca content of the feed. For this purpose, from the feed batch of each day, an aliquot was dried to constant weight and the water content determined from the comparison of wet and dry weight. Subsequently, 2×500 mg of the dried feed was digested with a laboratory microwave apparatus in conc. acids as follows: To 500 mg of dried feed were successively pipetted 3 ml HNO3 (conc.), 1 ml HCl (conc.) and 1 ml H2 O2 (30%). After the subsidence of the spontaneous oxidation reaction (foaming up), there followed the digestion pressure-controlled in closed digestion containers of Teflon PFA. The pressure/time steps were thereby successively following passed through: 40 psi (276 kpa), 5 min; 80 psi (552 kPa), 5 min; 150 psi ([…]); 10 min. To the cooled digest were then again added 2 ml H 2 O2 (30%) in order to test the completeness of the digestion reaction (no more foaming up).The digest was made up with a 1% lanthanum nitrate solution (v/v in 0.3% HCl) ad 100 ml. For the measurement of the Ca content on a flame atom absorption spectrometer (AAS), the samples were again dilute 1:100 with 1% lanthanum nitrate solution. The Ca intake was then calculated from the taken-up amount of feed and the measured water and Ca content.
The Ca loss via the faeces was then determined analogously to the Ca intake: Determination of the water content, acidic digestion in the microwave apparatus under the same conditions and subsequent measurement of the Ca content on the AAS.
In the collection container for the urine was placed 2 ml 10% HCl in order to prevent a precipitation of urate. After the end of the experiment, the urine volume was determined by weighing and subsequently an aliquot thereof diluted with 1% lanthanum nitrate solution (v/v in 0.3% HCl) in the ratio of 1:100. The determination of the Ca content of the samples took place on the AAS.

sterna organ cultures [3] = experiment: cAMP stimulation on sterna organ cultures; type: cell-based; conditions: for pMol cAMP: 100 nm inductor, n=4; for Induction of cAMP formation in words: compared with PTH(1-34)
Procedure: as §1

Substance | DNA synthesis E/C (UMR 106 cells; PTH(3-X) 100 nM) | [^3 H]-thymidine incorporation (cpm) (UMR 106 cells; PTH(3-X) 100 nM) | DNA synthesis E/C (UMR 106 cells; PTH(3-X) 300 nM) | [^3 H]-thymidine incorporation (UMR 106 cells; PTH(3-X) 300 nM) | DNA synthesis capacity in words (ROS 17/2.8 cells; ROS 17/2.8 cells, compared with other fragments) | DNA synthesis E/C (ROS 17/2.8 cells) | [^3 H]-thymidine incorporation (cpm) (ROS 17/2.8 cells) | Mitogeneity E/C +/- SEM (sterna organ cultures [1]) | Induction of cAMP formation in words [2] | pMol cAMP/mg protein ± SEM [2] [pMol cAMP/mg protein] | Ca retention (mg per day) average value (rats) [mg per day] | Ca retention in words (rats) | Ca retention % increase (rats) [%] | pMol cAMP (sterna organ cultures [3]) [pMol] | Induction of cAMP formation in words (sterna organ cultures [3])
PTH (3-34): PTH fragment, N-terminus shortened by two amino acids, positions 3-34 (SEIQLMHNLGKHLNSMERVEWLRKKLQDVHNF; Parathyroid hormone; UniProt P01270 34-65, looked up, fragment) | 1.9 ± 0.12 | 1,748 ± 150 cpm | 3.6 ± 0.31 | 3,516 ± 297 |  |  |  |  |  |  |  |  |  |  | 
PTH (3-37): PTH fragment, N-terminus shortened by two amino acids, positions 3-37 (SEIQLMHNLGKHLNSMERVEWLRKKLQDVHNFVAL; Parathyroid hormone; UniProt P01270 34-68, looked up, fragment) | 2.3 ± 0.06 | 2,161 ± 74 cpm | 4.1 ± 0.28 | 3,962 ± 268 |  |  |  |  |  |  |  |  |  |  | 
PTH (3-38): PTH fragment, N-terminus shortened by two amino acids, positions 3-38 (SEIQLMHNLGKHLNSMERVEWLRKKLQDVHNFVALG; Parathyroid hormone; UniProt P01270 34-69, looked up, fragment) | 2.1 ± 0.13 | 1,905 ± 159 cpm | 3.8 ± 0.43 | 3,701 ± 414 |  |  |  |  |  |  |  |  |  |  | 
Ser-Val-Ser-Glu-Ile-Gln-Leu-Met-His-Asn-Leu-Gly-Lys-His-Leu-Asn-Ser-Met-Glu-Arg-Val-Glu-Trp-Leu-Arg-Lys-Lys-Leu-Gln-Asp-Val-His-Asn-Phe-Val (SVSEIQLMHNLGKHLNSMERVEWLRKKLQDVHNFV) [hPTH(1-35)] |  |  |  |  | more strongly increased | 4.1 ± 0.43 | 2,686 ± 282 cpm | 3.13 +/- 0.57 | decreased | 82.4 ± 0.4 | 108.6 | higher Ca retention | 119 | 18.2 | decreased
Ser-Val-Ser-Glu-Ile-Gln-Leu-Met-His-Asn-Leu-Gly-Lys-His-Leu-Asn-Ser-Met-Glu-Arg-Val-Glu-Trp-Leu-Arg-Lys-Lys-Leu-Gln-Asp-Val-His-Asn-Phe-Val-Ala (SVSEIQLMHNLGKHLNSMERVEWLRKKLQDVHNFVA) [hPTH(1-36)] |  |  |  |  |  | 3.2 ± 0.37 | 2,136 ± 246 cpm | 3.37 +/- 0.58 | decreased | 44.6 ± 1.8 | 110.5 | higher Ca retention | 123 | 17.6 | decreased
hPTH(1-37): known human parathyroid hormone fragment, amino acids 1-37 (WO 91/06564) (SVSEIQLMHNLGKHLNSMERVEWLRKKLQDVHNFVAL; Parathyroid hormone; UniProt P01270 32-68, looked up, fragment) [reference compound] |  |  |  |  |  | 3.1 ± 0.38 | 2,021 ± 251 cpm |  |  |  | 96.0 |  | 94 |  | 
hPTH(1-38): known human parathyroid hormone fragment, amino acids 1-38, state of the art (SVSEIQLMHNLGKHLNSMERVEWLRKKLQDVHNFVALG; Parathyroid hormone; UniProt P01270 32-69, looked up, fragment) [reference compound] |  |  |  |  |  |  |  | 2.96 +/- 0.30 |  |  | 91.8 |  | 85 |  | 
